From patent publication US8518883B2, “Method of reducing deleterious effects of ischemia by administration of a thrombopoietin receptor ligand” (MCW Research Foundation, Inc., priority 2006, dated 2013) come the findings set out here.

This test relates to in vitro rat hearts. The experiment in a line: Isolated perfused (Langendorff) rat heart, 25 min global ischemia and 180 min reperfusion: hemodynamics, infarct size, recovery of LVDP. As to conditions: for Effect on the cardioprotective effect of Tpo (infarct size, LVDP recovery): Glibenclamide 3 μM 15 min alone, then with Tpo 1.0 ng/ml 15 min prior to ischemia; for Effect on cardioprotection, drug alone: no Tpo. How it is done: The study was directed to determining whether Tpo (0.01-10.0 ng/ml) confers immediate cardioprotection in rat hearts and the contribution of potassium channels to the underlying mechanism. Hearts from normoxic 8 week old Sprague Dawley rats (n=8/group) were isolated and perfused in the Langendorff mode. Hemodynamic function was recorded under steady-state conditions prior to 25 minutes global no flow ischemia and 180 minutes reperfusion.
Isolated heart perfusion. Isolated rat hearts were perfused with bicarbonate buffer at constant pressure in a retrograde manner and instrumented as described in Baker, et al., Am. J. Physiol. Heart Circulat. Physiol. 278:1395-1400, 2000 potassium channel blockers were added to this perfusate as needed. A 3-way tap, located immediately above the site of cannulation, allowed the entire perfusate to be diverted away from the heart to produce global, no-flow ischemia. Reperfusion was achieved by repositioning of the tap to allow perfusate to be delivered to the heart. Left ventricular function was monitored continuously throughout each experiment as described in Baker, et al., supra, 2000. End-diastolic pressure was initially set to 3 mmHg for 2 minutes. The balloon was then progressively inflated with a microsyringe to set end-diastolic pressures to 8 mmHg for the left ventricle, with developed pressure and heart rate recorded during steady-state conditions. Coronary flow rate was measured throughout the experiment by timed collections of the coronary effluent from the right side of the heart into a graduated cylinder. Coronary flow rate was expressed as milliliters per minute per gram wet weight.
Resistance to myocardial ischemia. Hearts from adult rats were perfused with bicarbonate buffer, and biventricular function was monitored continuously throughout each experiment as described in Baker, et al., supra, 2000. For concentration response studies, hearts were then perfused with Tpo (0.01-10.0 ng/ml) for 15 minutes prior to 25 minutes ischemia and 180 minutes reperfusion. For mechanism studies with potassium channel blockers, hearts were perfused with drugs for 15 minutes alone followed by 15 minutes in combination with Tpo prior to ischemia. Hearts perfused with potassium channel blockers alone in the absence of Tpo for 30 minutes prior to ischemia served as untreated controls for these studies. Recovery of post-ischemic left ventricular developed pressure was expressed as a percentage of its pre-drug, pre-ischemic value.
Assessment of ventricular function. Left ventricular function was monitored continuously throughout each experiment as described in Baker, et al., supra, 2000. Recovery of left ventricular pressure following ischemia was used to assess resistance to ischemia.
Measurement of infarct size/area at risk at 3 hours reperfusion were used to assess resistance to myocardial ischemia. For characterization of infarction size, hearts were perfused with 10 ml bicarbonate buffer containing triphenyltetrazolium chloride (SIGMA) at 37° C.
The heart was sectioned in 2 mm segments from apex to atrio-ventricular groove in a transverse fashion. Each segment was recorded and placed in formalin. After twenty-four (24) hours, the specimen was digitally photographed in a camera mount to normalize specimen-to-lens distance. Each photograph was then appended to Adobe Photoshop (Adobe™) to measure pixel density of infarcted versus non-infarcted areas. The percentage of infarction of each slide was expressed as a percentage of the entire area of the heart.
Hearts from male Sprague Dawley rats at 8 weeks of age were isolated and perfused with Tpo at 0.01, 0.1, 1.0, and 10 ng/ml for 15 minutes prior to 25 minutes global ischemia and 180 minutes reperfusion (FIG. 2). Tpo (1.0 ng/ml) reduced coronary flow rate prior to ischemia from 6±1 ml/min/g to 5±1 ml/min/g, increased left ventricular developed pressure from 119±15 mmHg to 151±19 mmHg and decreased heart rate from 240±34 beats/minute to 228±17 beats/minute. […]

Structures are written as SMILES.

Turning to `COc1ccc(Cl)cc1C(=O)NCCc1ccc(S(=O)(=O)NC(=O)NC2CCCCC2)cc1` [Glibenclamide, reference compound], the “Effect on the cardioprotective effect of Tpo (infarct size, LVDP recovery)” value is on record as “completely abolished”. In addition, where the note is “listed as glibenclamide”, the “Effect on the cardioprotective effect of Tpo (infarct size, LVDP recovery)” value was “completely prevented”. Besides, the “Effect on cardioprotection, drug alone” value (Glibenclamide 3 μM alone) is reported as “no effect”.
In the case of `COC[C@H]1OC(=O)c2coc3c2[C@@]1(C)C1=C(C3=O)[C@@H]2CCC(=O)[C@@]2(C)C[C@H]1OC(C)=O` [Wortmannin, reference compound], the “Effect on cardioprotection, drug alone” value (Wortmannin 100 nM alone) is listed as “no effect”.
